Counter-ions that a name gives are not always drawn. Like-named read-outs stand apart in the source and are kept apart here.
Columns and labels:
LSD1 = LSD1 (Homo sapiens (Human), UniProt O60341); assay: LSD1 enzyme activity detection (HTRF); format: biochemical; details: HTRF, H3K4me1 substrate; read-out: Inhibition of enzymatic activity of LSD1 IC50
NCI-H1417 cells = assay: In vitro cell proliferation detection (CellTiter-Glo, 7 days); format: cell-based; details: Homo sapiens
CYP3A4 = CYP3A4 (Homo sapiens (Human), UniProt P08684); assay: CYP 450 enzyme inhibition test (mixed human liver microsomes, LC-MS/MS)
CYP3A4, sequence (P08684 whole entry): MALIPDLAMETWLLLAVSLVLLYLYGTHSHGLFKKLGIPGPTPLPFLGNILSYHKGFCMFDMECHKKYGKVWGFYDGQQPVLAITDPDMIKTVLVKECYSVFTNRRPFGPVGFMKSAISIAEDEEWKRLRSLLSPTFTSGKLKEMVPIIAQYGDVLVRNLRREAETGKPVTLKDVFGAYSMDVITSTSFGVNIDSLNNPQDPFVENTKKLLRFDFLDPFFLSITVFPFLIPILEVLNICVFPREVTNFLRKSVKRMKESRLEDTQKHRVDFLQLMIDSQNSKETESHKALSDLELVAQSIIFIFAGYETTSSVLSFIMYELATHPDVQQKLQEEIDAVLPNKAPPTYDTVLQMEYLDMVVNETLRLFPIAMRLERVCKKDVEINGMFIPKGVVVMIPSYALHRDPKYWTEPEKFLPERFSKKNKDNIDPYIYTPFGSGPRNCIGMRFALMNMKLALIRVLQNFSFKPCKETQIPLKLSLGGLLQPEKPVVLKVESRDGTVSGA

Rat PK test (IV and PO) = details: for Cl / F: Male SD rats; for F: PO vs IV; for AUC(0-inf) / Cmax / half-life / Vd: male, SD, rat, plasma; for Vd: intravenous
[1] = biological target: voltage-gated potassium ion channel hERG (Homo sapiens (Human), UniProt Q12809); assay: hERG inhibition test (manual patch-clamp)
voltage-gated potassium ion channel hERG, sequence (Q12809 whole entry): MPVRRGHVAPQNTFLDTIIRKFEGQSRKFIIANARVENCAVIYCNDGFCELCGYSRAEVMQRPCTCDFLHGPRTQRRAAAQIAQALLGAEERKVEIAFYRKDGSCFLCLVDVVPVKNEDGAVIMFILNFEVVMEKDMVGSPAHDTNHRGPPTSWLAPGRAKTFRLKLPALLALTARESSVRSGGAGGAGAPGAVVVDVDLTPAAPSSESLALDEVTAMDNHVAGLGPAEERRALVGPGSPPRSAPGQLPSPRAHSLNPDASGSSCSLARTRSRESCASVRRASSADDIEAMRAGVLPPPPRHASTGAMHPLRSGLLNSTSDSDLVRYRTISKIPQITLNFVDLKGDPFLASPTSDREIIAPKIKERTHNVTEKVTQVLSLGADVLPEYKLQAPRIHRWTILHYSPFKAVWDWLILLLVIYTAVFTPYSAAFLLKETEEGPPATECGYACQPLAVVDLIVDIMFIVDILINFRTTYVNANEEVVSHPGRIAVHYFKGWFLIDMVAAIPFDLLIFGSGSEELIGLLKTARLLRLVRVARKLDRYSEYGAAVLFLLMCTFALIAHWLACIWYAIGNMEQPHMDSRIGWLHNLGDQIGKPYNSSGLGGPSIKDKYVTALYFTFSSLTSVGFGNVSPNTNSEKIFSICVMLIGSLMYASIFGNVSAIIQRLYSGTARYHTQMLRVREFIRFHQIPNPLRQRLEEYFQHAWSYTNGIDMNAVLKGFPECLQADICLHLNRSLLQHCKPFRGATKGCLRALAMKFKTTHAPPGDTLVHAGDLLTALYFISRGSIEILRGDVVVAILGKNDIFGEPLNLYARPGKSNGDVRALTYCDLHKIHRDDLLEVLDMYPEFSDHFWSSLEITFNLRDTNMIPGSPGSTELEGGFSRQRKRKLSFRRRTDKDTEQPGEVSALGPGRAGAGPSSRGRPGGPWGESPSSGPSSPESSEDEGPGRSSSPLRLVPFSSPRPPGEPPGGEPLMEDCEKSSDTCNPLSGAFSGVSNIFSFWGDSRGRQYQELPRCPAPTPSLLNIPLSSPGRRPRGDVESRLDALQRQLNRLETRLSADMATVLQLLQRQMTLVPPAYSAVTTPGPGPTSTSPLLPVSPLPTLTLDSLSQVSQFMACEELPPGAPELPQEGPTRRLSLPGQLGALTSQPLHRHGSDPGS

Caco-2 permeability test = details: human, Caco-2
[2] = 168 h, NCI-H1417 cells, 7 days, CellTiter-Glo, read-out: NCI-H1417 proliferation inhibition IC50
[3] = read-out: CYP3A4-T IC50, mixed human liver microsomes, NADPH, CYP3A4-T probe substrate
[4] = read-out: hERG IC50, manual patch-clamp
Throughout, for Cmax: test concentration or dose not given here.

Row | SMILES | IC50 (LSD1) | IC50 (NCI-H1417 cells; [2]) | IC50 (CYP3A4; [3]) | Papp A→B at 120 min (Caco-2 permeability test) | Papp B→A at 120 min (Caco-2 permeability test) | efflux ratio at 120 min (Caco-2 permeability test) | IC50 [1, 4] | other results
1 | CS(=O)(=O)N1CCN(C(=O)c2cc(CN[C@@H]3C[C@H]3c3ccc(F)cc3)nc(-c3ccc(-n4cccn4)cc3)n2)CC1 [Example 2, (2-(4-(1H-pyrazol-1-yl)phenyl)-6-((((1R,2S)-2-(4-fluorophenyl)cyclopropyl)amino)methyl)pyrimidin-4-yl)(4-(methylsulfonyl)piperazin-1-yl)methanone] | 17.9 ± 3.2 nM | 0.73 nM |  | 15 ×10⁻⁶ cm/s | 15 ×10⁻⁶ cm/s | 1 | 2580 nM | 
2 | COc1ccc(-c2nc(CN[C@@H]3C[C@H]3c3ccc(F)cc3)cc(C(=O)N3CCN(S(C)(=O)=O)CC3)n2)cc1O [Example 224] | 25.7 nM | 11.6 nM | 5540 nM |  |  |  | 5600 nM | 
3 | N#Cc1ccc(-c2c(-c3ccc(C(F)(F)F)c(O)c3)cnc(N3CCC(N)CC3)c2C#N)cc1F [Example 70, 2-(4-aminopiperidin-1-yl)-4-(4-cyano-3-fluorophenyl)-5-(3-hydroxy-4-(trifluoromethyl)phenyl) nicotinonitrile hydrochloride] | 0.5 ± 0.3 nM | 0.885 nM | 8710 nM |  |  |  |  | 
4 | Cc1ccc(-c2nc(CN[C@@H]3C[C@H]3c3ccc(F)cc3)cc(C(=O)NC3CCOCC3)n2)cc1O [Example 236] | 21.7 nM | 2.82 nM |  | 1.44 ×10⁻⁶ cm/s | 3.99 ×10⁻⁶ cm/s | 2.76 | 5400 nM | 
5 | N#Cc1ccc(-c2nc(N3CCC(N)CC3)n3ccnc3c2-c2ccc(N3CCOCC3)cc2)cc1F [Example 128, 4-(5-(4-aminopiperidin-1-yl)-8-(4-morpholinophenyl)imidazolo [1,2-c]pyrimidin-7-yl)-2-fluorobenzonitrile] | 4.19 ± 0.11 nM | 6.46 nM | > 50000 nM |  |  |  | 13700 nM | 
6 | O=C(NC1CCOCC1)c1cc(CN[C@@H]2C[C@H]2c2ccc(F)cc2)nc(-c2ccc(N3CCOCC3)cc2)n1 [Example 246, 6-(((1R,2S)-2-(4-fluorophenyl)cyclopropyl)amino)methyl)-2-(4-morpho-linophenyl)-N-(tetrahydro-2H-pyran-4-yl)pyrimidine-4-carboxamide hydrochloride] | 18.1 nM | 1.78 nM |  | 3.59 ×10⁻⁶ cm/s | 3.36 ×10⁻⁶ cm/s | 0.96 | 8550 nM | Cl (Rat PK test (IV and PO)): 39.6 mL/min/kg; F (Rat PK test (IV and PO)): 9.54%; AUC(0-inf) (Rat PK test (IV and PO)): 265 ng·h/mL; Cmax (Rat PK test (IV and PO)): 56.2 ng/mL; half-life (Rat PK test (IV and PO)): 4.96 h; Vd (Rat PK test (IV and PO)): 4.22 L/kg
7 | COc1ccc(-c2c(-c3ccc(C#N)c(F)c3)nc(N3CCC(N)CC3)c3c2OCC(=O)N3)cc1O [Example 280, 4-(5-(4-aminopiperidin-1-yl)-8-(3-hydroxy-4-methoxyphenyl)-3-oxo-3,4-dihydro-2H-pyridine[4,3-b][1,4]oxazin-7-yl)-2-fluorobenzonitrile hydrochloride] |  |  | > 10000 nM |  |  |  |  | IC50 (NCI-H1417 cells; NCI-H1417, 168 h, read-out: NCI-H1417 proliferation inhibition IC50(nM)): 2.7 ± 1 nM
8 | CS(=O)(=O)N1CCN(C(=O)c2cc(CCN[C@@H]3C[C@H]3c3ccc(F)cc3)nc(-c3ccc(-n4cccn4)cc3)n2)CC1 [Example 12, (2-(4-(1H-pyrazol-1-yl)phenyl)-6-(2-(((1R,2S)-2-(4-fluorophenyl)cyclopropyl)amino)ethyl)pyrimidin-4-yl) (4-(methylsulfonyl)piperazin-1-yl)methanone] |  |  |  | 5.95 ×10⁻⁶ cm/s | 6.92 ×10⁻⁶ cm/s | 1.16 |  | IC50 [1]: 4690 nM; IC50 (CYP3A4): 5590 nM
9 | Cc1noc2cc(-c3cnc(N4CCC(N)CC4)c(C#N)c3-c3ccc(C#N)c(F)c3)c(F)cc12 [Example 71, 2-(4-aminopiperidin-1-yl)-4-(4-cyano-3-fluorophenyl)-5-(5-fluoro-3-methylbenzo[d]isoxazol-6-yl)nicotinonitrile] | 0.3 ± 0.2 nM | 0.338 nM | 4300 nM |  |  |  |  | 
10 | COc1ccc(-c2c(OC)cc(N3CCC(N)CC3)nc2-c2ccc(C#N)c(F)c2)cc1F [Example 87, 4-(6-(4-aminopiperidin-1-yl)-3-(3-fluoro-4-methoxyphenyl)-4-methoxypyridin-2-yl)-2-fluoroben zonitrile] | 2.82 ± 1.49 nM | 3.29 nM | 6740 nM | 2.97 ×10⁻⁶ cm/s | 3.35 ×10⁻⁶ cm/s | 1.13 |  | 
11 | COc1ccc(-c2cnc(N3CCC(C)(N)CC3)c(C#N)c2-c2ccc(C#N)c(F)c2)cc1O [Example 80, 2-(4-amino-4-methylpiperidin-1-yl)-4-(4-cyano-3-fluorophenyl)-5-(3-hydroxy-4-methoxyphenyl) )nicotinonitrile hydrochloride] | 1 ± 0.4 nM | 1.22 nM | > 10000 nM |  |  |  | 9330 nM | 
12 | COc1ccc(-c2c(-c3ccc(C#N)c(F)c3)nc(N3CCC(N)CC3)n3ccnc23)cc1O [Example 124, 4-(5-(4-aminopiperidin-1-yl)-8-3-hydroxy-4-(methoxyphenyl)imidazolo[1,2-c]pyrimidin-7-yl)-2-fluorobenzonitrile] | 0.08 ± 0.03 nM | 0.163 nM |  | 1.73 ×10⁻⁶ cm/s | 24.7 ×10⁻⁶ cm/s | 14.3 | > 30000 nM | 

More lines, in order of falling IC50 (LSD1), values ahead:

Row | IC50 (LSD1) | IC50 (NCI-H1417 cells; [2]) | IC50 (CYP3A4; [3]) | Papp A→B at 120 min (Caco-2 permeability test) | Papp B→A at 120 min (Caco-2 permeability test) | efflux ratio at 120 min (Caco-2 permeability test) | SMILES | IC50 [1, 4] | other results
13 | 42.6 nM | 3.91 nM | 14100 nM |  |  |  | CS(=O)(=O)N1CCN(C(=O)c2cc(CN[C@@H]3C[C@H]3c3ccc(F)cc3)nc(-c3ccc(N4CCOCC4)cc3)n2)CC1 [Example 227] | 6290 nM | 
14 | 4.8 ± 1.8 nM | 0.986 nM | > 10000 nM |  |  |  | CC1CN(C(=O)c2cc(CN[C@@H]3C[C@H]3c3ccc(F)cc3)nc(-c3ccc(C#N)cc3)n2)CC(C)N1 (stereo partly drawn) [Example 239, 4-(4-(3,5-dimethyl-piperazine-1-carbonyl)-6-((((1R,2S)-2-(4-fluoro-phenyl)cyclopropyl)amino)methyl)pyrimidin-2-yl) benzonitrile] |  | 
15 | 4.3 ± 0.9 nM | 4 nM | > 10000 nM |  |  |  | COc1ccc(-c2c(-c3ccc(C#N)c(F)c3)nc(N3CC4CC3CC4N)n3ccnc23)cc1F (centres unmarked) [Example 169, 4-(5-(5-amino-2-azabicyclo[2.2.1]heptane-2-yl)-8-(3-fluoro-4-methoxyphenyl)imidazolo[1,2-c]pyrimidin-7-yl)-2-fluorobenzonitrile hydrochloride] |  | 
16 | 2.9 ± 0.28 nM | 13 nM |  | 3.66 ×10⁻⁶ cm/s | 27.2 ×10⁻⁶ cm/s | 7.42 | COc1ccc(-c2c(O)cc(N3CCC(N)CC3)nc2-c2ccc(C#N)c(F)c2)cc1F [Example 11, 4-(6-(4-aminopiperidin-1-yl)-3-(3-fluoro-4-methoxyphenyl)-4-hydroxypyridin-2-yl)-2-fluoroben zonitrile formate] | > 30000 nM | 
17 | 1.9 ± 0.4 nM | 1.61 nM | 7590 nM |  |  |  | COc1ccc(-c2cnc(N3CC4CC3CC4N)c(C#N)c2-c2ccc(C#N)c(F)c2)cc1O (centres unmarked) [Example 73, 2-(5-amino-2-azabicyclo [2.2.1]heptane-2-yl)-4-(4-cyano-3-fluorophenyl)-5-(3-hydroxy-4-methoxyphenyl) nicotinitrile] |  | 
18 | 0.46 ± 0.11 nM | 1 nM |  |  |  |  | COc1ccc(-c2c(OC)cc(N3CCC(N)CC3)nc2-c2ccc(C#N)c(F)c2)cc1O [Example 89, 4-(6-(4-aminopiperidin-1-yl)-3-(3-hydroxy-4-methoxyphenyl)-4-methoxypyridin-2-yl)-2-fluorobenzonitrile] | 13800 nM | Cl (Rat PK test (IV and PO)): 58.3 mL/min/kg; F (Rat PK test (IV and PO)): 13.1%; AUC(0-inf) (Rat PK test (IV and PO)): 208 ng·h/mL; Cmax (Rat PK test (IV and PO)): 22.5 ng/mL; half-life (Rat PK test (IV and PO)): 6.26 h; Vd (Rat PK test (IV and PO)): 13 L/kg
19 | 0.4 ± 0.2 nM | 0.22 nM | > 10000 nM |  |  |  | COc1ccc(-c2c(-c3ccc(C#N)c(F)c3)nc(N3CC4CC3CC4N)n3ccnc23)cc1O (centres unmarked) [Example 164, 4-(5-(5-amino-2-azabicyclo[2.2. 1]heptan-2-yl)-8-(3-hydroxy-4-methoxyphenyl)imidazolo[1,2-c]pyrimidin-7-yl)-2-fluorobenzonitrile hydrochloride] |  | 
20 | 0.3 ± 0.1 nM | 0.272 nM | > 10000 nM |  |  |  | CNC1CCN(c2ncc(-c3ccc(OC)c(O)c3)c(-c3ccc(C#N)c(F)c3)c2C#N)CC1 [Example 79, 4-(4-cyano-3-fluorophenyl)-5-(3-hydroxy-4-methoxyphenyl)-2-(4-(methylamino)piperidin-1-yl) nicotinonitrile hydrochloride] | 4380 nM | 
21 | 0.2 ± 0.05 nM | 1.19 nM | > 10000 nM |  |  |  | COc1ccc(-c2c(C#N)cc(N3CCC(N)CC3)nc2-c2ccc(C#N)c(F)c2)cc1O [Example 273, 6-(4-aminopiperidin-1-yl)-2-(4-cyano-3-fluorophenyl)-3-(3-hydroxy-4-methoxyphenyl)pyridine-4-carbonitrile] |  | 
22 | 0.2 ± 0.1 nM | 0.2 nM | 3650 nM |  |  |  | COc1ccc(-c2cnc(N3CCC(N)CC3)c(C#N)c2-c2ccc(C#N)c(F)c2)cc1O [Example 66, 2-(4-aminopiperidin-1-yl)-4-(4-cyano-3-fluorophenyl)-5-(3-hydroxy-4-methoxyphenyl)nicotinon itrile hydrochloride] | 15500 nM | Cl (Rat PK test (IV and PO)): 68.2 mL/min/kg; F (Rat PK test (IV and PO)): 17.7%; AUC(0-inf) (Rat PK test (IV and PO)): 227 ng·h/mL; Cmax (Rat PK test (IV and PO)): 42.5 ng/mL; half-life (Rat PK test (IV and PO)): 1.96 h; Vd (Rat PK test (IV and PO)): 11.3 L/kg
23 | 0.18 ± 0.08 nM | 0.44 nM | 54200 nM |  |  |  | COc1ccc(-c2c(O)cc(N3CCC(N)CC3)nc2-c2ccc(C#N)c(F)c2)cc1O [Example 23, 4-(6-(4-aminopiperidin-1-yl)-4-hydroxy-3-(3-hydroxy-4-methoxyphenyl)pyridin-2-yl)-2-fluorobenzonitrile] | > 30000 nM | 
